Test results taken from patent publication US7811760B2, “Vector and method for detecting the change in transcription amount” (priority 2006, dated 2010).

Molecular target: T1, aryl hydrocarbon receptor (Rattus norvegicus, UniProt P41738, Q794H)
T1 construct: The SD-line rat AhR gene-coding region was amplified from the reverse-transcribed sample by means of PCR; V5-His (C-terminal tag of vector pcDNA4/V5-His B); expressed in transfected cells; host or cells: mouse neuroblastoma Neuro2a, transient transfection with LIPOFECTAMINE 2000
T1 sequence (P41738 10-853 Q794H): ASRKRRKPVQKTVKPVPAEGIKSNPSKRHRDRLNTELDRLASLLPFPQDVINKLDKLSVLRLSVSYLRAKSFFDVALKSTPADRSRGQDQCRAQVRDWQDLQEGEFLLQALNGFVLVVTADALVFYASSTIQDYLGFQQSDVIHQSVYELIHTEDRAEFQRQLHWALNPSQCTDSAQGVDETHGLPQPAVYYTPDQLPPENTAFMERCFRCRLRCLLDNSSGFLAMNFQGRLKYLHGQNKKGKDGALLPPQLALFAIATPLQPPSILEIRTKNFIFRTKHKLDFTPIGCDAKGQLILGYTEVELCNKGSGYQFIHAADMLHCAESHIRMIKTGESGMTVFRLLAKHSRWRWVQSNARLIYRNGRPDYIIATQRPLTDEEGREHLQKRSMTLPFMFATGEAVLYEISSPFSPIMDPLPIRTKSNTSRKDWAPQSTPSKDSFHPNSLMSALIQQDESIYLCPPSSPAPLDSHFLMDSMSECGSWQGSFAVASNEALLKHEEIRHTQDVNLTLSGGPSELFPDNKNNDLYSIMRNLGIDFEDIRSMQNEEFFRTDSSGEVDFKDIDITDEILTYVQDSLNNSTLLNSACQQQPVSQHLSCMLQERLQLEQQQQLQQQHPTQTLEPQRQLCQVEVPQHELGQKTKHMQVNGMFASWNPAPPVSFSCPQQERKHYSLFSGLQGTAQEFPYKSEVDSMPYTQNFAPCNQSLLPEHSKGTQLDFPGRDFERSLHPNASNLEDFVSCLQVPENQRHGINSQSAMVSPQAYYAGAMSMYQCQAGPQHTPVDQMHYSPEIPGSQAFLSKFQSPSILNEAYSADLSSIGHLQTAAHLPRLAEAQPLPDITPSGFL
Assay: Reporter gene (luciferase) assay in Neuro2a cells carrying PGV-THp25 (2.5 kbp TH transcriptional regulatory region) and pcDNA4-rAhR
Format: cell-based, SD-line rat
Conditions: PGV-pTH25-introduced Neuro2a; for expression amount of the reporter gene (increase versus unexposed): 30 hours
Excerpt: In this Example, the PGV-THp25 prepared in Example 2 was used. Neuro2a was used as the cell.
Two kinds of vectors, pcDNA4-rAhR (Example 1) and pcDNA4/V5-His/lacZ (Invitrogen), were introduced into Neuro2a, together with PGV-THp25. pcDNA4-rAhR was introduced for constitutive expression of the SD-line rat AhR gene (SEQ ID No: 10) in the cell, and pcDNA4/V5-His/lacZ was introduced for normalization of the vector transfection efficiency.
The vectors were introduced into the cell by using LIPOFECTAMINE 2000 (Invitrogen). The cell was cultured on a 24-well plate, and the operation was performed according to the manual of Invitrogen. A total of 0.8 μg of vectors (0.4 μg of PGV-THp25, 0.2 μg of pcDNA4-rAhR, and 0.2 μg of pcDNA4/V5-His/lacZ) suspended in 50 μl of OPTI-MEM medium and 2 μl of LIPOFECTAMINE 2000 suspended in 50 μl of OPTI-MEM medium were mixed, and incubated at room temperature for 20 minutes to form nucleic acid/LIPOFECTAMINE 2000 complex. The obtained suspension containing the complex was added to Neuro2a cell culture, which has been previously cultured overnight in 500 μl of DF1:1 medium (containing 10% fetal calf serum) (0.8×10^5 cells were seeded on previous day), to allow incorporation of the vectors into the cell. The cell was cultured additionally for 24 hours after the transfection, for the purpose of improvement in vector incorporation efficiency and expression of the proteins derived from the introduced vectors.
As the test substance, a solution of dioxin (2,3,7,8-tetrachlorodibenzo-p-dioxine, TCDD) in dimethylsulfoxide (manufactured by Kanto Kagaku Co. Inc.) was used. After the transfection and the additional incubation for 24 hours, the medium was replaced with a fresh medium containing TCDD (at 0, 0.01, 1, or 100 nM), and the cell was cultured additionally for 30 hours. After 30 hours, the medium was removed from the 24-well plate, and the cell was washed with phosphate buffer twice. 100 μl of a protein extraction solution (manufactured by TOYO B-NET) was added to each well, and the cell suspension was stirred gently at room temperature for 15 minutes and then frozen at −80° C. The frozen solution was thawed at room temperature, and the resulting solution was recovered in a tube and diluted ten times with a protein extraction reagent containing 1 mg/ml bovine serum albumin. Luciferase and β-galactosidase activities in the diluted solution were measured, and the expression amount of the reporter gene was calculated as a relative luminescence intensity per 1 ng of β-galactosidase per second (RLU/sec/ng β-galactosidase).

SMILES: Clc1cc2c(cc1Cl)Oc1cc(Cl)c(Cl)cc1O2 [TCDD, 2,3,7,8-tetrachlorodibenzo-p-dioxine]
- expression amount of the reporter gene (increase versus unexposed) (0.01 nM TCDD): approximately 1.2 times
- expression amount of the reporter gene (increase versus unexposed) (1 nM TCDD): approximately 1.6 times
- expression amount of the reporter gene (increase versus unexposed) (100 nM TCDD): approximately 1.8 times
- expression amount of the reporter gene, dose dependence (0.01 to 100 nM TCDD): increased dose-dependently
